Reference: patent US10836725B2, “Modulators of the integrated stress pathway” (Calico Life Sciences LLC, priority 2016, dated 2020)

system: ATF4 luciferase reporter; test: ATF4-Luc assay in HEK293T cells carrying the ATF4 luciferase reporter (in vitro model of VWMD); format: cell-based, human; details: Homo sapiens, HEK-293T, 1 μg/mL tunicamycin, 7 hours, luminescence (One Glo)
Protocol: In order to test exemplary compounds of the invention in a cellular context, a stable VWMD cell line was first constructed. The ATF4 reporter was prepared by fusing the human full-length ATF4 5′-UTR (NCBI Accession No. BC022088.2) in front of the firefly luciferase (FLuc) coding sequence lacking the initiator methionine as described in Sidrauski et al (eLife 2013). The construct was used to produce recombinant retroviruses using standard methods and the resulting viral supernatant was used to transduce HEK293T cells, which were then subsequently selected with puromycin to generate a stable cell line.
HEK293T cells carrying the ATF4 luciferase reporter were plated on polylysine coated 384-well plates (Greiner Bio-one) at 30,000 cells per well. Cells were treated the next day with 1 μg/mL tunicamycin and 200 nM of a compound of Formula (I) for 7 hours. Luminescence was measured using One Glo (Promega) as specified by the manufacturer. Cells were maintained in DMEM with L-glutamine supplemented with 10% heat-inactivated FBS (Gibco) and Antibiotic-Antimycotic solution (Gibco).
Table 2 below summarizes the EC50 data obtained using the ATF4-Luc assay for exemplary compounds of the invention.

EC50 [nM]	Structure (SMILES)
250 to 500	O=C(COc1ccc(Cl)c(F)c1)NC12CC(C(=O)NCc3ccc(OC(F)F)cn3)(C1)C2 [Compound 147, 3-[2-(4-chloro-3-fluorophenoxy)acetamido]-N-{[5-(difluoromethoxy)pyridin-2-yl]methyl}bicyclo[1.1.1]pentane-1-carboxamide]
> 2000	Cn1ccc(CNC(=O)C23CC(NC(=O)COc4ccc(Cl)c(F)c4)(C2)C3)n1 [Compound 179, 3-[2-(4-chloro-3-fluorophenoxy)acetamido]-N-[(1-methyl-1H-pyrazol-3-yl)methyl]bicyclo[1.1.1]pentane-1-carboxamide]
> 2000	N#Cc1ccc(CNC(=O)C23CC(NC(=O)COc4ccc(Cl)c(F)c4)(C2)C3)cn1 [Compound 226, 3-[2-(4-chloro-3-fluorophenoxy)acetamido]-N-[(6-cyanopyridin-3-yl)methyl]bicyclo[1.1.1]pentane-1-carboxamide]
< 250	O=C(COc1ccc(F)cc1)NC12CCC(C(=O)NCc3ccc(C(F)(F)F)cc3)(CC1)C(O)C2 (centres unmarked) [Compound 123, 4-[2-(4-fluorophenoxy)acetamido]-2-hydroxy-N-{[4-(trifluoromethyl)phenyl]methyl}bicyclo[2.2.2]octane-1-carboxamide]
> 2000	O=C(COc1ccc(Cl)c(F)c1)NC12CC(C(=O)NCc3ccc(F)cc3)(C1)C2 [Compound 245, 3-[2-(4-chloro-3-fluorophenoxy)acetamido]-N-[(4-fluorophenyl)methyl]bicyclo[1.1.1]pentane-1-carboxamide]
> 2000	Cc1ccc(CNC(=O)C23CC(NC(=O)COc4ccc(Cl)c(F)c4)(C2)C3)cn1 [Compound 155, 3-[2-(4-chloro-3-fluorophenoxy)acetamido]-N-[(6-methylpyridin-3-yl)methyl]bicyclo[1.1.1]pentane-1-carboxamide]
> 2000	O=C(COc1ccc(Cl)c(F)c1)NC12CCC(C(=O)NCc3cc(F)cc(C(F)(F)F)c3)(CC1)C(O)C2 (centres unmarked) [Compound 126, 4-[2-(4-chloro-3-fluorophenoxy)acetamido]-N-{[3-fluoro-5-(trifluoromethyl)phenyl]methyl}-2-hydroxybicyclo[2.2.2]octane-1-carboxamide]
250 to 500	O=C(COc1ccc(Cl)c(F)c1)NC12CCC(C(=O)NCc3cccc(Cl)c3)(CC1)C(O)C2 (centres unmarked) [Compound 131, 4-[2-(4-chloro-3-fluorophenoxy)acetamido]-N-[(3-chlorophenyl)methyl]-2-hydroxybicyclo[2.2.2]octane-1-carboxamide]
< 250	O=C(COc1ccc(Cl)c(F)c1)NC12CCC(C(=O)NCc3ccc(C(F)(F)F)cn3)(CC1)[C@H](O)C2 (single isomer, unassigned) [Compound 113]
> 2000	Cc1cccc(CNC(=O)C23CC(NC(=O)COc4ccc(Cl)c(F)c4)(C2)C3)c1 [Compound 166, 3-[2-(4-chloro-3-fluorophenoxy)acetamido]-N-[(3-methylphenyl)methyl]bicyclo[1.1.1]pentane-1-carboxamide]
250 to 500	O=C(COc1ccc(Cl)cc1)NC12CC(C(=O)NCCOc3cccc(F)c3)(C1)C2 [Compound 104, 3-[2-(4-chlorophenoxy)acetamido]-N-[2-(3-fluorophenoxy)ethyl]bicyclo-[1.1.1]pentane-1-carboxamide]
> 2000	COc1c(F)cc(CNC(=O)C23CC(NC(=O)COc4ccc(Cl)c(F)c4)(C2)C3)cc1F [Compound 206, 3-[2-(4-chloro-3-fluorophenoxy)acetamido]-N-[(3,5-difluoro-4-methoxyphenyl)methyl]bicyclo[1.1.1]pentane-1-carboxamide]
> 2000	O=C(COc1ccc(Cl)c(F)c1)NC12CC(C(=O)NCc3ccccc3OCC(F)F)(C1)C2 [Compound 203, 3-[2-(4-chloro-3-fluorophenoxy)acetamido]-N-{[2-(2,2-difluoroethoxy)phenyl]methyl}bicyclo[1.1.1]pentane-1-carboxamide]
> 2000	Cc1ccnc(CNC(=O)C23CC(NC(=O)COc4ccc(Cl)c(F)c4)(C2)C3)c1 [Compound 221, 3-[2-(4-chloro-3-fluorophenoxy)acetamido]-N-[(4-methylpyridin-2-yl)methyl]bicyclo[1.1.1]pentane-1-carboxamide]
> 2000	Cn1cnc(CNC(=O)C23CC(NC(=O)COc4ccc(Cl)c(F)c4)(C2)C3)c1 [Compound 196, 3-[2-(4-chloro-3-fluorophenoxy)acetamido]-N-[(1-methyl-1H-imidazol-4-yl)methyl]bicyclo[1.1.1]pentane-1-carboxamide]
< 250	O=C(COc1ccc(Cl)c(F)c1)NC12CCC(C(=O)NCc3cc(C(F)(F)F)ccn3)(CC1)C(O)C2 (centres unmarked) [Compound 120, 4-[2-(4-chloro-3-fluorophenoxy)acetamido]-2-hydroxy-N-{[4-(trifluoromethyl)pyridin-2-yl]methyl}bicyclo[2.2.2]octane-1-carboxamide]
> 2000	CCCCc1ccc(CNC(=O)C23CC(NC(=O)COc4ccc(Cl)c(F)c4)(C2)C3)cc1 [Compound 238, N-[(4-butylphenyl)methyl]-3-[2-(4-chloro-3-fluorophenoxy)acetamido]bicyclo[1.1.1]pentane-1-carboxamide]
> 2000	C[C@@H](NC(=O)C12CC(NC(=O)COc3ccc(Cl)c(F)c3)(C1)C2)c1ccc(Cl)cc1 [Compound 198, 3-[2-(4-chloro-3-fluorophenoxy)acetamido]-N-[(1R)-1-(4-chlorophenyl)ethyl]bicyclo[1.1.1]pentane-1-carboxamide]

Continued, compound first:

Structure (SMILES)	EC50 [nM]
CN(Cc1ccccc1)C(=O)C12CC(NC(=O)COc3ccc(Cl)c(F)c3)(C1)C2 [Compound 175, N-benzyl-3-[2-(4-chloro-3-fluorophenoxy)acetamido]-N-methylbicyclo[1.1.1]pentane-1-carboxamide]	> 2000
CC(C)Oc1ccc(CNC(=O)C23CC(NC(=O)COc4ccc(Cl)c(F)c4)(C2)C3)cc1 [Compound 207]	> 2000
COc1ncc(CNC(=O)C23CC(NC(=O)COc4ccc(Cl)c(F)c4)(C2)C3)cn1 [Compound 200, 3-[2-(4-chloro-3-fluorophenoxy)acetamido]-N-[(2-methoxypyrimidin-5-yl)methyl]bicyclo[1.1.1]pentane-1-carboxamide]	> 2000
O=C(COc1ccc(Cl)c(F)c1)NC12CC(C(=O)NCc3ccncc3)(C1)C2 [Compound 233, 3-[2-(4-chloro-3-fluorophenoxy)acetamido]-N-[(pyridin-4-yl]methyl]bicyclo[1.1.1]pentane-1-carboxamide]	> 2000
Cc1ccc(CNC(=O)C23CCC(NC(=O)COc4ccc(Cl)c(F)c4)(CC2)CC3O)nc1 (centres unmarked) [Compound 142, 4-[2-(4-chloro-3-fluorophenoxy)acetamido]-2-hydroxy-N-[(5-methylpyridin-2-yl)methyl]bicyclo[2.2.2]octane-1-carboxamide]	500 to 1000
CC(C)(C)c1ccc(CNC(=O)C23CCC(NC(=O)COc4ccc(Cl)c(F)c4)(CC2)CC3O)cc1 (centres unmarked) [Compound 137, N-[(4-tert-butylphenyl)methyl]-4-[2-(4-chloro-3-fluorophenoxy)acetamido]-2-hydroxybicyclo[2.2.2]octane-1-carboxamide]	500 to 1000
O=C(COc1ccc(Cl)c(F)c1)NC12CCC(C(=O)NCc3cccc(C(F)(F)F)c3)(CC1)C(O)C2 (centres unmarked) [Compound 135, 4-[2-(4-chloro-3-fluorophenoxy)acetamido]-2-hydroxy-N-{[3-(trifluoromethyl)phenyl]methyl}bicyclo[2.2.2]octane-1-carboxamide]	< 250
COc1cccc(CNC(=O)C23CC(NC(=O)COc4ccc(Cl)c(F)c4)(C2)C3)n1 [Compound 232, 3-[2-(4-chloro-3-fluorophenoxy)acetamido]-N-[(6-methoxypyridin-2-yl]methyl]bicyclo[1.1.1]pentane-1-carboxamide]	> 2000
Cc1cc(OCCNC(=O)C23CC(NC(=O)COc4ccc(Cl)cc4)(C2)C3)ccc1Cl [Compound 103, N-[2-(4-chloro-3-methylphenoxy)ethyl]-3-[2-(4-chlorophenoxy)acetamido]-bicyclo[1.1.1]pentane-1-carboxamide]	250 to 500
O=C(COc1ccc(Cl)c(Cl)c1)NC12CC(C(=O)NCc3ccc(C(F)(F)F)nc3)(C1)C2 [Compound 150, 3-[2-(3,4-dichlorophenoxy)acetamido]-N-{[6-(trifluoromethyl)pyridin-3-yl]methyl}bicyclo[1.1.1]pentane-1-carboxamide]	< 250
COc1ccc(OC)c(CNC(=O)C23CC(NC(=O)COc4ccc(Cl)c(F)c4)(C2)C3)c1 [Compound 236, 3-[2-(4-chloro-3-fluorophenoxy)acetamido]-N-[(2,5-dimethoxyphenyl]methyl]bicyclo[1.1.1]pentane-1-carboxamide]	> 2000
O=C(COc1ccc(F)cc1)NC12CCC(C(=O)NCc3ccc(C(F)(F)F)cn3)(CC1)C(O)C2 (centres unmarked) [Compound 122, 4-[2-(4-fluorophenoxy)acetamido]-2-hydroxy-N-{[5-(trifluoromethyl)pyridin-2-yl]methyl}bicyclo[2.2.2]octane-1-carboxamide]	< 250
O=C(COc1ccc(Cl)c(F)c1)NC12CC(C(=O)NCCc3ccncc3)(C1)C2 [Compound 234, 3-[2-(4-chloro-3-fluorophenoxy)acetamido]-N-[2-(pyridin-4-yl)ethyl]bicyclo[1.1.1]pentane-1-carboxamide]	> 2000
COc1cccc(CNC(=O)C23CC(NC(=O)COc4ccc(Cl)c(F)c4)(C2)C3)c1 [Compound 216, 3-[2-(4-chloro-3-fluorophenoxy)acetamido]-N-[(3-methoxyphenyl)methyl]bicyclo[1.1.1]pentane-1-carboxamide]	> 2000
